Reference: the kinase profiling compilation of Christmann-Franck et al. (2016)
“And” between values parts separate entries of the source, which are not always exact repeats. Equal values may be shown once.

What was measured:
Assay in all cases: radiometric filter-binding kinase assay, Kinase HotSpot
Settings in all cases: compound 0.5 µM; ATP 10 µM
[1] = target: CAMK1 (human) (UniProt Q14012)
[2] = target: MAPK9 (human) (UniProt P45984)
[3] = target: STK39 (human) (UniProt Q9UEW8)
[4] = target: GRK6 (human) (UniProt P43250)
GRK6 (human), sequence (P43250 whole entry, looked up): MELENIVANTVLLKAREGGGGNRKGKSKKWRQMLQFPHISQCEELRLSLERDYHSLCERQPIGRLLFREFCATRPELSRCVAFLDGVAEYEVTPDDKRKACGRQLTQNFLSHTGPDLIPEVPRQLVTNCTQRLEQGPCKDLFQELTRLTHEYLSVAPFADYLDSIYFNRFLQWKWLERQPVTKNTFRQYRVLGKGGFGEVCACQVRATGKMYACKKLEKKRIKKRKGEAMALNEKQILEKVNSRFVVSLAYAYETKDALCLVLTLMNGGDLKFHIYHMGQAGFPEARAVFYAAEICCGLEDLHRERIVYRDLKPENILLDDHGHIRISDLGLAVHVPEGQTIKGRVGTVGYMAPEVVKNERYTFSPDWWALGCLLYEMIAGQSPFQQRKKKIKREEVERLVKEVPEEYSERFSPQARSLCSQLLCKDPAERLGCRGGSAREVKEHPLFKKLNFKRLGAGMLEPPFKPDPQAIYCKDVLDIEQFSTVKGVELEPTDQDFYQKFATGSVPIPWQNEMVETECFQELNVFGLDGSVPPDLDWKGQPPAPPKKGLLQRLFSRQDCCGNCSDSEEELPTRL

[5] = target: DMPK (human) (UniProt Q09013)
[6] = target: HIPK2 (human) (UniProt Q9H2X6)
[7] = target: CSNK1G3 (human) (UniProt Q9Y6M4)
[8] = target: MAPK10 (human) (UniProt P53779)
MAPK10 (human), sequence (P53779 whole entry, looked up): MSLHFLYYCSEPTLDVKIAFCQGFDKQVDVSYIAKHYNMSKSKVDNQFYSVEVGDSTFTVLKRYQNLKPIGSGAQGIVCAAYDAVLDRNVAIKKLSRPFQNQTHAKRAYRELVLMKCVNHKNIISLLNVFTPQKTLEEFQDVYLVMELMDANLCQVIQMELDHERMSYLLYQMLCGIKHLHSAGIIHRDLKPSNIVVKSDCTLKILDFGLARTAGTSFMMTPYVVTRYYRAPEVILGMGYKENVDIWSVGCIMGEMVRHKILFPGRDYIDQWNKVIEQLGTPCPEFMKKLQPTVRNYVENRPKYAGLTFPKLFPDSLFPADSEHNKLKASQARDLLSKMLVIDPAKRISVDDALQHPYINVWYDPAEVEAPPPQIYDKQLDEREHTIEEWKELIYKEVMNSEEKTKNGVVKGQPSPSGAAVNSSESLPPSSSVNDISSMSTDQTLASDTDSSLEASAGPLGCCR

[9] = target: EPHA1 (human) (UniProt P21709)
[10] = target: FES (human) (UniProt P07332)
[11] = target: EPHA7 (human) (UniProt Q15375)
[12] = target: MAP3K7 TAB1 (human) (UniProt O43318+Q15750)
[13] = target: DAPK2 (human) (UniProt Q9UIK4)
[14] = target: ROCK1 (human) (UniProt Q13464)
[15] = target: NEK7 (human) (UniProt Q8TDX7)
[16] = target: NEK6 (human) (UniProt Q9HC98)
[17] = target: CAMK2D (human) (UniProt Q13557)
[18] = target: PRKD3 (human) (UniProt O94806)
[19] = target: TBK1 (human) (UniProt Q9UHD2)
TBK1 (human), sequence (Q9UHD2 whole entry, looked up): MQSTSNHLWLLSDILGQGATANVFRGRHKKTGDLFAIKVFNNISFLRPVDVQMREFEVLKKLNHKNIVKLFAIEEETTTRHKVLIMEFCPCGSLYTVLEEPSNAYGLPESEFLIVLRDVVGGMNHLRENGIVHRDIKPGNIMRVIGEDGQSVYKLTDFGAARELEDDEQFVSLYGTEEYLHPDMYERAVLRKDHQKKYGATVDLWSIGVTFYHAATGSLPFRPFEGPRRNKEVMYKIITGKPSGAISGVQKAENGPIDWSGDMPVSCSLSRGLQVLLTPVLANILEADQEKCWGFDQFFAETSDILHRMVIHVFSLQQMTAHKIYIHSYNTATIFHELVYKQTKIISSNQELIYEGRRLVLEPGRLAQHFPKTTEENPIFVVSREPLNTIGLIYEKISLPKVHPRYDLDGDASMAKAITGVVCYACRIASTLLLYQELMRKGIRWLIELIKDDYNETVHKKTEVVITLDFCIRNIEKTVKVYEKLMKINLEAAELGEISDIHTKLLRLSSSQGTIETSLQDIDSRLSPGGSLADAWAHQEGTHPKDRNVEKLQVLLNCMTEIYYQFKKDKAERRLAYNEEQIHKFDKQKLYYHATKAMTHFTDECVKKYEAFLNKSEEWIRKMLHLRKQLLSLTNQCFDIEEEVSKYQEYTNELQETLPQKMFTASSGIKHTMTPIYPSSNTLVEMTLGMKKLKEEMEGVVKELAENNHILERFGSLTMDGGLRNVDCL

[20] = target: GRK7 (human) (UniProt Q8WTQ7)
[21] = target: EPHB4 (human) (UniProt P54760)
[22] = target: PRKCG (human) (UniProt P05129)
[23] = target: LYN (human) (UniProt P07948)
LYN (human), sequence (P07948 whole entry, looked up): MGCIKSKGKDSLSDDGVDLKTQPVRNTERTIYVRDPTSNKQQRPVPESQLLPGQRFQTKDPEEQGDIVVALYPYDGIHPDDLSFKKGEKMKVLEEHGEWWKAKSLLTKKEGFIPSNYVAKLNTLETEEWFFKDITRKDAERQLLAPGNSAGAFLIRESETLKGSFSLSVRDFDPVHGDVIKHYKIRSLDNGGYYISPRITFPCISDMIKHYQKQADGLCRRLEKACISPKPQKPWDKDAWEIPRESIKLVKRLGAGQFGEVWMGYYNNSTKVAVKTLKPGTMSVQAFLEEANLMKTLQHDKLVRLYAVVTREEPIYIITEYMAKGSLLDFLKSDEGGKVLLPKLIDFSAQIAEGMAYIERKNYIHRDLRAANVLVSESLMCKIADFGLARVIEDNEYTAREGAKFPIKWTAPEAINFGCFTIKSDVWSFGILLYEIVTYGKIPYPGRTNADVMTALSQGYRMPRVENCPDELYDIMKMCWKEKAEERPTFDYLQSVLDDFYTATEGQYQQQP

[24] = target: NEK9 (human) (UniProt Q8TD19)
[25] = target: CAMK1G (human) (UniProt Q96NX5)
[26] = target: NEK11 (human) (UniProt Q8NG66)
NEK11 (human), sequence (Q8NG66 whole entry, looked up): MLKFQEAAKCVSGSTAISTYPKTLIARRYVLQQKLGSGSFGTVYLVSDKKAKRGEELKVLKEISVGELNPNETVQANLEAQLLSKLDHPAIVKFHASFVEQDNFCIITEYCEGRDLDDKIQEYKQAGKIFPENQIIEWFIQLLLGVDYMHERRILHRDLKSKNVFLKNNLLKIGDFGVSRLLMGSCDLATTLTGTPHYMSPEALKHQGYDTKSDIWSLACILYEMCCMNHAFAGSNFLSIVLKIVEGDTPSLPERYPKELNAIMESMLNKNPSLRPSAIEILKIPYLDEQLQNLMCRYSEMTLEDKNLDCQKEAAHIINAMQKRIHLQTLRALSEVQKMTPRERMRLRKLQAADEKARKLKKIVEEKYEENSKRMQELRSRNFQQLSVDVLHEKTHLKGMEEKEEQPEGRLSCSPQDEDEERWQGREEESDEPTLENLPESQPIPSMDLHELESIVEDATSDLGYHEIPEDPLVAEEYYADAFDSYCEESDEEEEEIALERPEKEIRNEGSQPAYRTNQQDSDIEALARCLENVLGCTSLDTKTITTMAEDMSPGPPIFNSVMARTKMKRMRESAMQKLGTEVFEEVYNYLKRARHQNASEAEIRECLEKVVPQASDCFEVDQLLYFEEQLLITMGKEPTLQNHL

[27] = target: ACVR1 (human) (UniProt Q04771)
[28] = target: MARK3 (human) (UniProt P27448)
[29] = target: BRSK1 (human) (UniProt Q8TDC3)
[30] = target: PRKX (human) (UniProt P51817)
[31] = target: NLK (human) (UniProt Q9UBE8)
[32] = target: SIK2 (human) (UniProt Q9H0K1)
[33] = target: STK10 (human) (UniProt O94804)
STK10 (human), sequence (O94804 whole entry, looked up): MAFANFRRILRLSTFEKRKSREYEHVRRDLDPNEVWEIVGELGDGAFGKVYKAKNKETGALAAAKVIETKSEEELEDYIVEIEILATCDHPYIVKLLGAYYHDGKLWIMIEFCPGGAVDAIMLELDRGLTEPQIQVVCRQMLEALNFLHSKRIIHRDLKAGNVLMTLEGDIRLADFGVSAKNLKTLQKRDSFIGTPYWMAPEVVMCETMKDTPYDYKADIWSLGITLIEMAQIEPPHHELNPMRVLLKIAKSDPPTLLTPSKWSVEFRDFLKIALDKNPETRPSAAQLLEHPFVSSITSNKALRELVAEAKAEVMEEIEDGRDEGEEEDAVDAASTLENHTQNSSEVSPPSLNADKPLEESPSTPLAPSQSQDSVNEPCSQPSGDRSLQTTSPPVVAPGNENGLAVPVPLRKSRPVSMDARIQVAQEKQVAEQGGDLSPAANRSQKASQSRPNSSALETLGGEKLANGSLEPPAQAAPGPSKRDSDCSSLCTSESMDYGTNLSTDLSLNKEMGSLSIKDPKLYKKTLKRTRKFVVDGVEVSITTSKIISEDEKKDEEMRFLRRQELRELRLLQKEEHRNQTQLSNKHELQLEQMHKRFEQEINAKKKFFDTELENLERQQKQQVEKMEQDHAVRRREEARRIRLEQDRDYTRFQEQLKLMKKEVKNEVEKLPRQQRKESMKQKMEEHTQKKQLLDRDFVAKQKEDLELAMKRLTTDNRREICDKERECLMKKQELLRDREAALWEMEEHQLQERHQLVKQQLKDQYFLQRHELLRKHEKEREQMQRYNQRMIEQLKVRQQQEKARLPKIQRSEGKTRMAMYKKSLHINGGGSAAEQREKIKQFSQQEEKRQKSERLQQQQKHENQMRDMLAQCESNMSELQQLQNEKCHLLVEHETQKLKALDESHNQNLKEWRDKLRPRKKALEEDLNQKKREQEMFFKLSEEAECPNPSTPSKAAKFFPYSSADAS

[34] = target: CLK2 (human) (UniProt P49760)
[35] = target: CDK6 CCND1 (human) (UniProt Q00534+P24385)
[36] = target: WNK3 (human) (UniProt Q9BYP7)
[37] = target: HIPK3 (human) (UniProt Q9H422)
[38] = target: EPHB1 (human) (UniProt P54762)
EPHB1 (human), sequence (P54762 whole entry, looked up): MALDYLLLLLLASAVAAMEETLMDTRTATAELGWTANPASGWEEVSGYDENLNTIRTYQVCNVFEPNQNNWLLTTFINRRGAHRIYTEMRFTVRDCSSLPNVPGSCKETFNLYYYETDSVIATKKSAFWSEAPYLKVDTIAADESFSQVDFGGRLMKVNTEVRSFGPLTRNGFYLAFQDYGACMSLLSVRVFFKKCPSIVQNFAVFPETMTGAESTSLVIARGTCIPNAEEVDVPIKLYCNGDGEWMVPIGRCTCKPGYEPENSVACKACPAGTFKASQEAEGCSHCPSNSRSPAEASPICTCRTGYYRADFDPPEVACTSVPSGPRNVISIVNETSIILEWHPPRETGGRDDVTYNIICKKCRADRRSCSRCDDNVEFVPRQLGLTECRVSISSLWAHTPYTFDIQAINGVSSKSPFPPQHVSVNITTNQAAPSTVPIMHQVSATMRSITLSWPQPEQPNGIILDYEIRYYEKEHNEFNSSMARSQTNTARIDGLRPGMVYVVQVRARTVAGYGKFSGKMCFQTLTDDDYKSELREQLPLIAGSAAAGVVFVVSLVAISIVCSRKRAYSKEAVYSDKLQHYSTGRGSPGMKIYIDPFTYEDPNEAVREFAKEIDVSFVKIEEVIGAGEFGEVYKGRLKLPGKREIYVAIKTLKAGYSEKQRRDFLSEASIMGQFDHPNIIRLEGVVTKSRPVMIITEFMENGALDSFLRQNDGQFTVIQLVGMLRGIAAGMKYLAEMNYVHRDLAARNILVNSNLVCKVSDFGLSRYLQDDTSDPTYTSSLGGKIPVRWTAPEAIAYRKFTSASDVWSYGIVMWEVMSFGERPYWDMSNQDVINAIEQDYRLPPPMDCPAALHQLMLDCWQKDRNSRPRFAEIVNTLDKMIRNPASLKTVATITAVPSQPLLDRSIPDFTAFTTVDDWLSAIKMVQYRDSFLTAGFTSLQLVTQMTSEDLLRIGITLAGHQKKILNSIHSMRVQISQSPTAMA

[39] = target: EPHA3 (human) (UniProt P29320)
[40] = target: EPHA2 (human) (UniProt P29317)
[41] = target: DAPK1 (human) (UniProt P53355)
[42] = target: IRAK4 (human) (UniProt Q9NWZ3)

Work on `O=C(Nc1cccc(Nc2cc(Nc3cccc(C(F)(F)F)c3)ncn2)c1)C1CC1` yielded a residual activity [1] of 108%, a residual activity [2] of 98.2% and a residual activity [3] of 94.1%. The residual activity [4] was 98.3%, the residual activity [5] was 99.7% and the residual activity [6] was 107%. The residual activity [7] was 107%, the residual activity [8] was 83.4% and the residual activity [9] was 92.9%. The residual activity [10] was 101%, the residual activity [11] was 101% and the residual activity [12] was 99.3%. It also gave a residual activity [13] of 99%, a residual activity [14] of 98.7% and a residual activity [15] of 97.8%. For the same molecule, the residual activity [16] was 99.2%, the residual activity [17] was 101% and the residual activity [18] was 96.9%. The residual activity [19] was 99%, the residual activity [20] was 99% and the residual activity [21] was 97.8%. For the same molecule, the residual activity [22] was 102%, the residual activity [23] was 102% and 99.1% and the residual activity [24] was 101%. For the same molecule, the residual activity [25] was 96.9%, the residual activity [26] was 94.3% and the residual activity [27] was 103%. It also gave a residual activity [28] of 105%, a residual activity [29] of 101% and a residual activity [30] of 107%. The residual activity [31] was 95.9%, the residual activity [32] was 89.4% and the residual activity [33] was 95.7%. For the same molecule, the residual activity [34] was 97.3%, the residual activity [35] was 99.1% and the residual activity [36] was 100%. The residual activity [37] was 97%, the residual activity [38] was 100% and the residual activity [39] was 98.4%. For the same molecule, the residual activity [40] was 104%, the residual activity [41] was 94.7% and the residual activity [42] was 104%.
With `O=C1Cc2c([nH]c3ccc(Br)cc23)-c2ccccc2N1` the residual activity [1] was 106%, the residual activity [2] was 93.8% and the residual activity [3] was 90.1%. The residual activity [4] was 105%, the residual activity [5] was 110% and the residual activity [6] was 107%. For the same molecule, the residual activity [7] was 103%, the residual activity [8] was 89.6% and the residual activity [9] was 100%. It also gave a residual activity [10] of 87.8%, a residual activity [11] of 101% and a residual activity [12] of 84.2%. It also gave a residual activity [13] of 100%, a residual activity [14] of 96.1% and a residual activity [15] of 94.3%. For the same molecule, the residual activity [16] was 100%, the residual activity [17] was 91.1% and the residual activity [18] was 95.5%. The residual activity [19] was 93%, the residual activity [20] was 100% and the residual activity [21] was 100%. For the same molecule, the residual activity [22] was 93.8%, the residual activity [23] was 67.2% and 75.4% and the residual activity [24] was 94%. It also gave a residual activity [25] of 97.4%, a residual activity [26] of 107% and a residual activity [27] of 162%. For the same molecule, the residual activity [28] was 76.8%, the residual activity [29] was 60.5% and the residual activity [30] was 100%. It also gave a residual activity [31] of 98.7%, a residual activity [32] of 63.5% and a residual activity [33] of 89.8%. It also gave a residual activity [34] of 95.7%, a residual activity [35] of 83.4% and a residual activity [36] of 95.5%. For the same molecule, the residual activity [37] was 109%, the residual activity [38] was 93.5% and the residual activity [39] was 96%. It also gave a residual activity [40] of 98.3%, a residual activity [41] of 101% and a residual activity [42] of 88.3%.
